{
  "source": "patent US9066516B2",
  "about": "“Uses of thaxtomin and thaxtomin compositions as herbicides” (priority 2008, dated 2015)",
  "format_in_all_cases": "in vivo",
  "key": {"barnyard grass": {"system": "barnyard grass", "assay": "Post-emergent MBI-005 + rice herbicides on barnyard grass (Example 18)", "conditions": "14 days", "procedure": "(§1) Ten seedlings in 2.5 cm square pots containing plant growth mix were sprayed to full coverage using a hand sprayer. Negative controls were sprayed with water. Pots were randomly placed in a growth room at 25° C. and 50% RH, and watered as necessary. Treatments were replicated three times and evaluated at 7 and 14 days for visual % damage, with 0% indicating no damage and 100% indicating plant death.\nSynergistic effect were noted between MBI-005 and all three rice herbicides, 14 days after treatment. Synergy was calculated as the ratio of observed (E) to expected (E/Ee) percent control using Colby's formula."}, "crabgrass [1]": {"system": "crabgrass", "assay": "Post-emergent MBI-005 + Chelated Fe on crabgrass (Example 16)", "conditions": "15 DAT", "procedure": "as §1, with “with two suboptimal rates of MBI-005, 14.49 mg/mL of Chelated Fe, or a combination thereof, at a volume of 40 gal/A” for “to full coverage”, “cabinet track” for “hand”, “five” for “three”, “15” for “14”\n(§2) Synergy was calculated as the ratio of observed (E) to expected (E/Ee) percent control using Colby's formula."}, "Rice (variety M209)": {"system": "Rice (variety M209)", "assay": "Field study on rice, yield (Example 6)", "conditions": "Thaxtomin A 180 g/acre", "procedure": "The efficacy of thaxtomin A derived from a liquid culture of S. acidiscabies is tested in a field study on rice using 4.9 sq-ft plots surrounded by a metal ring. Treatments with either thaxtomin A or thaxtomin A in combination with lemongrass oil (formulated as GreenMatch EX) or cyhalofop (formulated as Clincher CA) were done using a hand-held sprayer with a water volume corresponding to 57 gallons per acre. Rice (variety M209) was grown until maturity and harvested by hand for yield and weed count assessment. Results of yield (kg/ha), and numbers of redstem, small-flower umbrella sedge, and sprangletop in each plot are presented in Table 3 below."}, "[2]": {"system": "corn plants (Zea mays var. Sunglow)", "assay": "Pot study, phytotoxicity on corn (Example 1)", "conditions": "spray 0.125-1.0 mg thaxtomin A/mL, three weeks after treatment", "procedure": "In a pot study test in greenhouse conditions, 6-inch corn plants (Zea mays var. Sunglow) were sprayed with increasing concentrations of thaxtomin A mixed in a carrier 4% ethanol, 0.02% polysorbate 60 POE (20) sorbitan monostearate solution. The spraying solutions contained 0.125, 0.25, 0.5 and 1.0 mg thaxtomin A/mL, and the plants are sprayed until total coverage. Each treatment was done in three replicates, and a control solution consists of water with 4% ethanol and 0.02% polysorbate 60 POE (20) sorbitan monostearate as a surfactant. Prior to and after treatments, plants are grown in a greenhouse under artificial lights (12-h light/dark cycle) at 25° C.\nPlants are evaluated in one-week intervals starting at 7 days after treatment."}, "crabgrass [3]": {"system": "crabgrass", "assay": "Post-emergent MBI-005 + Atrazine on crabgrass (Example 17)", "conditions": "for AVG E (visual % damage): 7DAT; for AVG/ E (visual % damage): 14DAT", "procedure": "as §1, with “with two suboptimal rates of MBI-005, and 35% of the atrazine label rate (0.3 gallons/A), or a combination thereof, at a volume of 40 gal/A” for “to full coverage”, “cabinet track” for “hand”, “five” for “three”\nas §2"}, "[4]": {"system": "Bermuda buttercup (Oxalis pes-caprae)", "assay": "Post-emergence test of MBI-005, field (Example 13)", "procedure": "(§3) In field testing, field soil containing weeds at the 1-5 leaf stage were treated with 38.2 L MBI-005/ha at a spray volume of 374 L/ha. Treatments, including water as the negative control and WeedBGon or Preen Broadleaf as the positive control, were replicated four times and applied twice at a four week interval. The positive control on Late watergrass, Ricefield Bulrush, Smallflower sedge and Arrowhead was an herbicide containing as active ingredient 2,4-D and an organosilicone surfactant was added to MBI-005. Treatments were assessed for % control and % ground cover."}, "[5]": {"system": "Nightshade, Eastern Black (Solanum ptychanthum)", "assay": "Post-emergence test of MBI-005, field (Example 13)", "procedure": "as §3"}, "[6]": {"system": "Ricefield bullrush (Scirpus mucronatus)", "assay": "Post-emergence test of MBI-005, field (Example 13)", "procedure": "as §3"}, "[7]": {"system": "Late watergrass (Echinochloa phyllopogon)", "assay": "Post-emergence test of MBI-005, field (Example 13)", "procedure": "as §3"}, "[8]": {"system": "Flexuous bittercress (Cardamine flexuosa)", "assay": "Post-emergence test of MBI-005, field (Example 13)", "procedure": "as §3"}, "[9]": {"system": "Arrowhead (Sagittaria montevidensis)", "assay": "Post-emergence test of MBI-005, field (Example 13)", "procedure": "as §3"}, "[10]": {"system": "Henbit (Lamimum amplexicaule)", "assay": "Post-emergence test of MBI-005, field (Example 13)", "procedure": "as §3"}, "[11]": {"system": "Common chickweed (Stellaria media)", "assay": "Post-emergence test of MBI-005, field (Example 13)", "procedure": "as §3"}, "[12]": {"system": "Velvetleaf (Abutilon theophrasti)", "assay": "Post-emergence test of MBI-005, field (Example 13)", "procedure": "as §3"}, "Eclipta (Eclipta alba)": {"system": "Eclipta (Eclipta alba)", "assay": "Post-emergence test of MBI-005, field (Example 13)", "procedure": "as §3"}, "[13]": {"system": "Shepherd's purse (Capsella bursa-pastoris)", "assay": "Post-emergence test of MBI-005, field (Example 13)", "procedure": "as §3"}, "[14]": {"system": "Common yellow oxalis (Oxalis pes-caprae)", "assay": "Post-emergence test of MBI-005, field (Example 13)", "procedure": "as §3"}, "[15]": {"system": "Common groundsel (Senecio vulgaris)", "assay": "Post-emergence test of MBI-005, field (Example 13)", "procedure": "as §3"}, "[16]": {"system": "Smallflower (Cyperus difformis)", "assay": "Post-emergence test of MBI-005, field (Example 13)", "conditions": "Smallflower (sedge)", "procedure": "as §3"}, "[17]": {"system": "Hairy bittercress (Cardamine hirsuta)", "assay": "Post-emergence test of MBI-005, field (Example 13)", "procedure": "as §3"}, "[18]": {"system": "Marsh watercress (Rorippa islandica)", "assay": "Post-emergence test of MBI-005, field (Example 13)", "procedure": "as §3"}, "[19]": {"system": "Clover (Trifolium hirtum)", "assay": "Post-emergence test of MBI-005, field (Example 13)", "procedure": "as §3"}, "Bluegrass (Poa annua)": {"system": "Bluegrass (Poa annua)", "assay": "Post-emergence test of MBI-005, field (Example 13)", "procedure": "as §3"}, "[20]": {"system": "Hairy galinsoga (Galinsoga ciliata)", "assay": "Post-emergence test of MBI-005, field (Example 13)", "procedure": "as §3"}, "[21]": {"conditions": "12.5% MBI-005 Label Rate (0.125 mg/mL)"}, "[22]": {"conditions": "25% MBI-005 Label Rate (0.25 mg/mL)"}},
  "data": [
    {"compound": "CN1C(=O)[C@](O)(Cc2cccc(O)c2)N(C)C(=O)[C@@H]1Cc1c[nH]c2cccc([N+](=O)[O-])c12", "note": "[thaxtomin A]", "values": [
      {"measurement": "% Control MBI-005", "setting": "barnyard grass; MBI-005 12.5% of the label rate (Penoxsulam line)", "value": 17.5, "unit": "%"},
      {"measurement": "% Control MBI-005", "setting": "barnyard grass; MBI-005 25% of the label rate (Bispyribac-sodium line)", "value": 41.7, "unit": "%"},
      {"measurement": "AVG E (visual % damage)", "setting": "crabgrass [1]; 12.5% MBI-005 (0.125 mg/mL)", "value": 1.3, "unit": "%"},
      {"measurement": "AVG E (visual % damage)", "setting": "crabgrass [1]; 25% MBI-005 (0.25 mg/mL)", "value": 1.3, "unit": "%"},
      {"measurement": "Yield (kg/ha)", "setting": "Rice (variety M209); listed as Thaxtomin A", "value": 7876, "unit": "b kg/ha"},
      {"measurement": "Yield (kg/ha)", "setting": "Rice (variety M209); listed as thaxtomin", "value": "no effect"},
      {"measurement": "phytotoxicity", "setting": "[2]", "value": "no phytotoxicity is observed"},
      {"measurement": "AVG E (visual % damage)", "setting": "crabgrass [3]; [21]", "value": 10.0, "unit": "%"},
      {"measurement": "AVG E (visual % damage)", "setting": "crabgrass [3]; [22]", "value": 11.9, "unit": "%"},
      {"measurement": "AVG/ E (visual % damage)", "setting": "crabgrass [3]; [21]", "value": 10.0, "unit": "%"},
      {"measurement": "AVG/ E (visual % damage)", "setting": "crabgrass [3]; [22]", "value": 11.9, "unit": "%"},
      {"measurement": "Rating at 1 mg/ml (Post-Emergence % control)", "setting": "[4]", "value": "++++ (91-100)"},
      {"measurement": "Rating at 1 mg/ml (Post-Emergence % control)", "setting": "[5]", "value": "++ (51-80)"},
      {"measurement": "Rating at 1 mg/ml (Post-Emergence % control)", "setting": "[6]", "value": "++++ (91-100)"},
      {"measurement": "Rating at 1 mg/ml (Post-Emergence % control)", "setting": "[7]", "value": "+++ (81-90)"},
      {"measurement": "Rating at 1 mg/ml (Post-Emergence % control)", "setting": "[8]", "value": "++ (51-80)"},
      {"measurement": "Rating at 1 mg/ml (Post-Emergence % control)", "setting": "[9]", "value": "++++ (91-100)"},
      {"measurement": "Rating at 1 mg/ml (Post-Emergence % control)", "setting": "[10]", "value": "++++ (91-100)"},
      {"measurement": "Rating at 1 mg/ml (Post-Emergence % control)", "setting": "[11]", "value": "++ (51-80)"},
      {"measurement": "Rating at 1 mg/ml (Post-Emergence % control)", "setting": "[12]", "value": "++ (51-80)"},
      {"measurement": "Rating at 1 mg/ml (Post-Emergence % control)", "setting": "Eclipta (Eclipta alba)", "value": "++ (51-80)"},
      {"measurement": "Rating at 1 mg/ml (Post-Emergence % control)", "setting": "[13]", "value": "++++ (91-100)"},
      {"measurement": "Rating at 1 mg/ml (Post-Emergence % control)", "setting": "[14]", "value": "++++ (91-100)"},
      {"measurement": "Rating at 1 mg/ml (Post-Emergence % control)", "setting": "[15]", "value": "++++ (91-100)"},
      {"measurement": "Rating at 1 mg/ml (Post-Emergence % control)", "setting": "[16]", "value": "++++ (91-100)"},
      {"measurement": "Rating at 1 mg/ml (Post-Emergence % control)", "setting": "[17]", "value": "++ (51-80)"},
      {"measurement": "Rating at 1 mg/ml (Post-Emergence % control)", "setting": "[18]", "value": "++ (51-80)"},
      {"measurement": "Rating at 1 mg/ml (Post-Emergence % control)", "setting": "[19]", "value": "++ (51-80)"},
      {"measurement": "Rating at 1 mg/ml (Post-Emergence % control)", "setting": "Bluegrass (Poa annua)", "value": "++ (51-80)"},
      {"measurement": "Rating at 1 mg/ml (Post-Emergence % control)", "setting": "[20]", "value": "+++ (81-90)"}
    ]}
  ]
}
